Assay results reported in US8729047B2, “Compositions for inhibiting redox-sensitive GTPases” (Board of Regents, The University of Texas System, priority 2010, dated 2014).
Where two headings read alike, the source gives them in different places. One block for each compound: values may come before it.

What was measured:
MLC = MLC phosphorylation in A7r5 cells; format: cell-based, rat
Description: FIG. 20. Determination of RhoA activity and MLC phosphorylation. […] Cell lysates in a buffer containing 1% NP-40, 10 mM EDTA, and 20 mM TrisHCl (pH 7.4) were centrifuged (50,000×g, 20 min) to remove solid matter. (A) The soluble cell extract was then used to perform Western blot analyses for RhoA and the MLC. This cell extract also was used for the co-IP-based ESI-MS analysis (FIG. 6). (B) A RhoA activity assay was colorimetrically determined using cell extract; the assay was performed with the RhoA G-LISA Activation Assay Kit (Cat. No. BK124) (Denver, Colo.). To examine the level of phosphorylation of the MLC, cells were cultured with ˜5 μCi of ^32P in 1 mL of phosphate-free DMEM. The collected cell extract was nutated with resin coupled with a macrophage myosin II antibody at 4° C. for 5 h. Resin was collected by centrifugation, and proteins bound to the resin were washed and eluted with a buffer (80° C.) containing […], 5 mM DTT, and 10 mM TrisHCl (pH 6.8). The immunoprecipitates were then analyzed by SDS-PAGE and autoradiographed. The values of RhoA activity and the MLC phosphorylation determined from untreated cells were set at 100%. […] The data represented in the figure represent the mean values of triplicate measurements, and the vertical error bar indicates standard errors.

RhoA = target: T1, RhoA (Rattus norvegicus, UniProt P61589); test: Co-IP ESI-MS of thioguanine nucleotide disulfide adduct in A7r5 cells; format: cell-based; conditions: for thioguanine nucleotide-RhoA disulfide adduct (Cys20): FIGS. 21, 22
T1 construct: endogenous in cells; host or cells: A7r5 cells (rat aortic vascular smooth muscle)
T1 sequence (P61589 whole entry): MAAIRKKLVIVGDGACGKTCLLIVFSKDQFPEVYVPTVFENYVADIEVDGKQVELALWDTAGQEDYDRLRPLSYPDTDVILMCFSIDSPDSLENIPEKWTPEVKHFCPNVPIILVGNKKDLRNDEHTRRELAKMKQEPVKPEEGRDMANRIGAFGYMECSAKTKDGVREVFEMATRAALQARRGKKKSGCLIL
Description: FIG. 21. Detection of 6-TGNP adduct from A7r5 and T cells. Experimental procedures using A7r5 (A and B) and T (C and D) cells, respectively, were identical to those of the experiments described in FIG. 19 and previous studies (Tiede et al. J. Clin. Invest. 111, 1133-1145 (2003); and Poppe et al. J. Immunol. 176, 640-651 (2006)). The cell extract was incubated with a monoclonal RhoA antibody (A and B) or a Rac1 antibody (C and D) coupled with resin. Resin was collected by centrifugation (5,000×g, 10 min), which was suspended in 50% methanol:0.1% formic acid. The protein portion was separated by brief centrifugation (3,000×g for 5 min), resuspended in a buffer containing 10 mM EDTA and 5 mM phosphate (pH 7.5), digested with trypsin for 10 h, and analyzed with MS. The MS peak at 1476.6 Da represents peptide-6-TGDP adduct; TC^20LLIVFSK-6-TGDP.
FIG. 22. Detection of 8-TGNP adduct from A7r5 cells. […] The indicated MS peak at 1476.6 Da represents peptide-8-TGDP adduct; TC^20LLIVFSK-8-TGDP (SEQ ID NO:4). The molecular weight of the peptide-8-TGDP adduct is exactly the same as that of the peptide-6-TGDP adduct. A and B, respectively, represent any of samples taken from a cell culture with and without treatment with 8-TG.

RhoC = RhoC (Homo sapiens, UniProt P08134); test: Competitive binding assay, [3H]GDP-loaded Rho protein titrated with 6-TGDP (FIG. 16A); set-up: made in house; host or cells: E. coli
RhoC, sequence (P08134 whole entry): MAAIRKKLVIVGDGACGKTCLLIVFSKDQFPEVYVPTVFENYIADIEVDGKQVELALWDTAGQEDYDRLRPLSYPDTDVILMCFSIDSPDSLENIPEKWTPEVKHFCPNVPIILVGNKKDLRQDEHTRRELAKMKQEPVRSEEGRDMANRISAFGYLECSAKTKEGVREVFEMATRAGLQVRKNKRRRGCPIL
Description: (§1) FIG. 16. Kinetic properties of RhoC with 6-TGDP in the presence or absence of a redox agent. All kinetic analyses are described elsewhere herein. (A) ^appKD values of Rac1, RhoA, RhoC, and RhoC C20S for 6-TGDP were estimated to be 7.9, 11.6, 11.8, and 11.2 μM, respectively. ^trueKD values of Rac1, RhoA, […] for 6-TGDP were then calculated to be 5.1, 10.8, 11.1, and 10.5 μM, respectively, by using a compensation equation, ^trueKD for 6-TGDP=^appKD for 6-TGDP/(1+[[^3H]GDP]/^trueKD for GDP) (Heo, J., and Hong, I. (2010) Biochemistry 49, 3965-3976), in conjunction with the values given. […] The GDP dissociation rates from RhoC C20S by NO, .NO2, and N2O3 were estimated to be 0.02×10^−3, 0.05×10^−3, and 0.04×10^−3 s^−1, respectively. […] (D) ^appKD values of RhoC for [^3H]GDP in the presence or absence of DTT were estimated to be 22.4 μM and […], respectively. ^appKD values of C20S RhoC for [^3H]GDP in the presence or absence of DTT were determined to be 24.8 μM and 25.2 μM, respectively. The regression values associated with these fits were >0.8595. All data points associated with vertical standard error bars shown in this figure are the mean values of triplicate measurements.
(§2) Transition metal-free assay buffer and vials as described in a previous study (Heo et al. Biochemistry 49, 3965-3976 (2010)) were used for all kinetic assays. The kinetic assay buffer contains the highest grade of 50 mM NaCl, 10 mM MgCl2, 1 mM EDTA, and 0.1 mM DTPA in 50 mM TrisHCl (pH 7.4). Before performance of any of the assays, all protein samples also were dialyzed with a metal-free buffer under anaerobic conditions. As with RhoA and Rac1 (Heo et al. J. Biol. Chem. 280, 31003-31010 (2005)), C20S RhoC were expressed in E. coli and purified using anionic and size exclusion columns.
(§3) (a) A competitive binding assay was performed to determine the binding affinity of Rho GTPase and 6-TGDP. The radiolabeled [^3H]GDP-loaded Rho protein (1 μM) was titrated with various concentrations of 6-TGDP. The titrated Rho protein sample then was spotted onto a nitrocellulose membrane. Each membrane was washed three times with the assay buffer, and radioactivity was determined using a Beckman-Coulter scintillation counter. The radioactivity of the sample (Rho protein-bound [^3H]GDP) was converted into, and thus plotted, as the fraction of mol GDP per mol total Rho protein. The apparent dissociation constant (^appKD) of the Rho protein with [^3H]GDP in the presence of 6-TGDP was determined by using Prism software to fit the titration curve to a hyperbola.

RhoC C20S = RhoC C20S (Homo sapiens, UniProt P08134, C20S); test: as above; set-up: made in house; host or cells: E. coli
RhoC C20S, sequence (P08134 whole entry C20S): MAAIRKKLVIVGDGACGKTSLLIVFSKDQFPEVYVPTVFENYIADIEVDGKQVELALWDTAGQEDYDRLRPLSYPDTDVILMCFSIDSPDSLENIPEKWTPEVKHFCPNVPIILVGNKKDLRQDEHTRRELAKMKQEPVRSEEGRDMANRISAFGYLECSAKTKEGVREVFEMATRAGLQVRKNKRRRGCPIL
Description: as §1, §2, §3

[1] = [3H]GDP-loaded Rho protein 1 μM titrated with 6-TGDP, FIG. 16A, read-out: appKD for 6-TGDP
[2] = determined within this study, read-out: trueKD for GDP

MS peak representing 6-TGNP-RhoA adduct (RhoA; both 6-TG and NO, intensity not truly quantitative): increased
SMILES: Nc1nc2nc[nH]c2c(=S)[nH]1 [6-TG, 6-thioguanine]
dephosphorylated form of the MLC (MLC; 6-TG plus DETA/NO 10 μM, FIG. 20B): synergistically increases
MLC dephosphorylation (MLC; 6-TG, after 3 days, FIG. 20B): large portion of the MLC in A7r5 cells was observed to have been dephosphorylated
thioguanine nucleotide-RhoA disulfide adduct (Cys20) (RhoA): biologically inactive 6-TGNP-RhoA disulfide adduct

Kd (RhoC; [1]): 11.8 µM
Kd (RhoC; calculated by compensation equation, FIG. 16A, read-out: trueKD for 6-TGDP): 11.1 µM
Kd (RhoC C20S; [1]): 11.2 µM
Kd (RhoC C20S; calculated by compensation equation, FIG. 16A, fourth value of the list, read-out: trueKD for 6-TGDP): 10.5 µM
SMILES: Nc1nc2c(ncn2[C@@H]2O[C@H](COP(=O)(O)OP(=O)(O)O)[C@@H](O)[C@H]2O)c(=S)[nH]1 [6-TGDP, 6-thioguanosine diphosphate]

SMILES: Nc1nc2[nH]c(S)nc2c(=O)[nH]1 [8-TG, 2-amino-8-mercapto-1H-purin-6(9H)-one]
screen of 6-TP isomers on MLC phosphorylation (MLC; not shown): dephosphorylates the MLC
thioguanine nucleotide-RhoA disulfide adduct (Cys20) (RhoA): biologically inactive 8-TGNPRhoA disulfide adduct

SMILES: Nc1nc2c(ncn2[C@@H]2O[C@H](COP(=O)(O)OP(=O)(O)O)[C@@H](O)[C@H]2O)c(=O)[nH]1 [GDP]
Kd (RhoC; [2]): 15 ± 8 µM
Kd (RhoC C20S; [2]): 14.2 ± 8 µM
